Laboratory results taken from patent US20230087118A1, “IMIDAZO[1,2-a][sequence] DERIVATIVES AND THEIR USE IN THE TREATMENT OF DISEASE” (priority 2019, published 2023).
Counter-ions that a name gives are not always drawn. Like-named read-outs stand apart in the source and are kept apart here.

Molecular target: T1, IRAK4 (Homo sapiens, UniProt Q9NWZ3)
T1 sequence (Q9NWZ3 1-460): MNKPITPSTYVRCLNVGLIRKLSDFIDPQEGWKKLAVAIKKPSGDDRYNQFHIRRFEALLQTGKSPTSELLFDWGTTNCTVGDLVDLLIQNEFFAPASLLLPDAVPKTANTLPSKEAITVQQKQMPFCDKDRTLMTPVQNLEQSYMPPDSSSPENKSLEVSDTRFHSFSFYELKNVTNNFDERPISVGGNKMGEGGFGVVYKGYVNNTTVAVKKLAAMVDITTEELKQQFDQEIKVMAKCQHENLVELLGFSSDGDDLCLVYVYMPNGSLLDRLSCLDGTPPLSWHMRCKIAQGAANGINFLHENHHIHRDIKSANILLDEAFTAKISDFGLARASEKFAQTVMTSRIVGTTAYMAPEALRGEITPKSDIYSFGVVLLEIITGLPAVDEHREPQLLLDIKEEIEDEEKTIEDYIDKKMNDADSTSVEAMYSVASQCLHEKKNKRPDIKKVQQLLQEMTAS
Assay: biochemical

[1] = IRAK4 Biochemical Assay (1 mM ATP, 2 h) IC50 (μM), 1 mM ATP, 2 h, 100 pM IRAK4

Row | Compound | IC50 [1] | IC50
1 | C[C@@]12CC[C@@](c3cn4cc(C(=O)Nc5ccccn5)nc(OC5CCC5)c4n3)(CO1)C2 (single isomer, unassigned) [Example 622] | 0.004 µM | 
2 | COc1cc2nc(C34COC(C)(C3)C4)cn2cc1C(=O)Nc1ccccn1 [Example 1, 7-Methoxy-2-(1-methyl-2-oxabicyclo[2.1.1]hexan-4-yl)-N-(2-pyridyl)imidazo[1,2-a]pyridine-6-carboxamide] |  | 0.0298 µM
3 | COc1cc2nc(C34CC(OC)(C3)C4)cn2cc1C(=O)Nc1ccccn1 [Example 2] | 0.0586 µM | 
4 | COc1cc2nc(C34CC(F)(C3)C4)cn2cc1C(=O)Nc1ccccn1 [Example 3] | 0.217 µM | 
5 | COc1cc2nc(C34CC(C)(CO3)C4)cn2cc1C(=O)Nc1ccccn1 [Example 4] |  | 0.235 µM
6 | COc1cc2nc(C34COC(CF)(C3)C4)cn2cc1C(=O)Nc1ccccn1 [Example 5] | 0.0721 µM | 
7 | COc1cc2nc(C3CC34CCCCO4)cn2cc1C(=O)Nc1ccccn1 (stereo not drawn) [Example 6] |  | 0.151 µM
8 | COc1cccc(NC(=O)c2cn3cc(C45COC(CF)(C4)C5)nc3cc2OC)n1 [Example 7] | 0.0166 µM | 
9 | COc1cccc(NC(=O)c2cn3cc(C4C5CCOCC54)nc3cc2OC)n1 (stereo not drawn) [Example 25] | 0.0031 µM | 
10 | COc1cccc(NC(=O)c2cn3cc(C45CC(C)(CO4)C5)nc3cc2OC)n1 [Example 26] | 0.124 µM | 
11 | COc1cccc(NC(=O)c2cn3cc(C45CCC(C)(C4)OC5)nc3cc2OC)n1 (stereo not drawn) [Example 27] | 0.0198 µM | 
12 | COc1cccc(NC(=O)c2cn3cc(C45CC(C)(C4)OC54COC4)nc3cc2OC)n1 [Example 28] | 0.0969 µM | 
13 | COc1cccc(NC(=O)c2cn3cc(C45CCC(C)(CC4)OC5)nc3cc2OC)n1 [Example 29] | 0.0041 µM | 
14 | COc1cccc(NC(=O)c2cn3cc([C@@]45COC[C@@H]4C5)nc3cc2OC)n1 [Example 30] | 0.0735 µM | 
15 | COc1cccc(NC(=O)c2cn3cc(C45COC(C)(C4)C5)nc3cc2OC)n1 [Example 31] |  | 0.015 µM
16 | CCOc1cc(C(=O)Nc2cccc(C(F)F)n2)cn2cc(C3CCCOC3)nc12 (stereo not drawn) [Example 52, N-(6-(difluoromethyl)pyridin-2-yl)-8-ethoxy-2-(tetrahydro-2H-pyran-3-yl)imidazo[1,2-a]pyridine-6-carboxamide] |  | 0.0075 µM
17 | CCOc1cc(C(=O)Nc2cccc(OC)n2)cn2cc(C3CCCOC3)nc12 (stereo not drawn) [Example 53, 8-Ethoxy-N-(6-methoxypyridin-2-yl)-2-(tetrahydro-2H-pyran-3-yl)imidazo[1,2-a]pyridine-6-carboxamide] |  | 0.0352 µM
18 | COc1cc2nc(C3CCOCC3)cn2cc1C(=O)Nc1cccc2ccnn12 [Example 57, 7-Methoxy-N-(pyrazolo[1,5-a]pyridin-7-yl)-2-(tetrahydro-2H-pyran-4-yl)imidazo[1,2-a]pyridine-6-carboxamide] |  | 0.0041 µM
19 | CCc1cccc(NC(=O)c2cn3cc(C45COC(CF)(C4)C5)nc3cc2OC)n1 [Example 58, N-(6-ethylpyridin-2-yl)-2-(1-(fluoromethyl)-2-oxabicyclo[2.1.1]hexan-4-yl)-7-methoxyimidazo[1,2-a]pyridine-6-carboxamide trifluoroacetate] | 0.0105 µM | 
20 | CCc1cccc(NC(=O)c2cn3cc(C4CCOCC4)nc3cc2OC)n1 [Example 59] | 0.0137 µM | 
21 | CCc1cccc(NC(=O)c2cn3cc(C4CC(OC)C4)nc3cc2OC)n1 (stereo not drawn) [Example 61] | 0.0351 µM | 
22 | CCc1cccc(NC(=O)c2cn3cc(C4CC5(CCOC5)C4)nc3cc2OC)n1 (stereo not drawn) [Example 62] | 0.0038 µM | 
23 | O=C(Nc1cccc(C(F)F)n1)c1cc(OC(F)F)c2nc(C3CCOCC3)cn2c1 [Example 63, 8-(Difluoromethoxy)-N-(6-(difluoromethyl)pyridin-2-yl)-2-(tetrahydro-2H-pyran-4-yl)imidazo[1,2-a]pyridine-6-carboxamide trifluoroacetate] | 0.0078 µM | 
24 | COc1nc(C(=O)Nc2cccc(C(F)(F)F)n2)cn2cc(C3CCOCC3)nc12 [Example 76] | 0.0095 µM | 
25 | COc1cccc(NC(=O)c2cn3cc(C4CCOCC4)nc3c(OC)n2)n1 [Example 77] | 0.074 µM | 

Second part, the compound after the results:

Row | IC50 [1] | IC50 | Compound
26 |  | 0.0002 µM | CC(C)Oc1cc2nc([C@@]34CC[C@@](C)(C3)OC4)cn2cc1C(=O)Nc1cccn(C(F)F)c1=O (single isomer, unassigned) [Example 624]
27 |  | 0.0003 µM | CC(C)Oc1cc2nc([C@]34CC[C@](C)(C3)OC4)cn2cc1C(=O)Nc1cccn(C(F)F)c1=O (single isomer, unassigned) [Example 625]
28 |  | 0.0006 µM | C[C@@]12CC[C@@](c3cn4cc(C(=O)Nc5cccc(C(F)F)n5)nc(OC5CCC5)c4n3)(CO1)C2 (single isomer, unassigned) [Example 626]
29 |  | 0.0004 µM | C[C@]12CC[C@](c3cn4cc(C(=O)Nc5cccc(C(F)F)n5)nc(OC5CCC5)c4n3)(CO1)C2 (single isomer, unassigned) [Example 627]
30 |  | 0.0001 µM | CC(C)Oc1nc2nc([C@@]34CC[C@@](C)(C3)OC4)cn2cc1C(=O)Nc1cccn(C(F)F)c1=O (single isomer, unassigned) [Example 628]
31 |  | 0.0003 µM | CC(C)Oc1nc2nc([C@]34CC[C@](C)(C3)OC4)cn2cc1C(=O)Nc1cccn(C(F)F)c1=O (single isomer, unassigned) [Example 629]
32 |  | 0.0003 µM | CC(C)Oc1nc2nc([C@@]34CC[C@@](C)(C3)OC4)cn2cc1C(=O)Nc1cnn2cc(F)cnc12 (single isomer, unassigned) [Example 630]
33 |  | 0.0004 µM | CC(C)Oc1nc2nc([C@]34CC[C@](C)(C3)OC4)cn2cc1C(=O)Nc1cnn2cc(F)cnc12 (single isomer, unassigned) [Example 631]
34 |  | 0.0016 µM | Cn1ccc(NC(=O)c2cn3cc([C@]45CC[C@](C)(C4)OC5)nc3cc2OC2CCCC2)n1 (single isomer, unassigned) [Example 633]
35 |  | 0.0023 µM | Cn1ccc(NC(=O)c2cn3cc([C@@]45CC[C@@](C)(C4)OC5)nc3cc2OC2CCCC2)n1 (single isomer, unassigned) [Example 634]
36 |  | 0.0026 µM | Cn1ccc(NC(=O)c2cn3cc([C@@]45CC[C@@](C)(C4)OC5)nc3nc2OC2CCCC2)n1 (single isomer, unassigned) [Example 635]
37 |  | 0.0037 µM | Cn1ccc(NC(=O)c2cn3cc([C@]45CC[C@](C)(C4)OC5)nc3nc2OC2CCCC2)n1 (single isomer, unassigned) [Example 636]
38 |  | 0.0013 µM | CCC(C)Oc1nc2nc(C34COC(C)(C3)C4)cn2cc1C(=O)Nc1cnn2cc(C)cnc12 (single isomer, unassigned) [Example 642]
39 |  | 0.0004 µM | CCC(C)Oc1nc2nc(C34COC(C)(C3)C4)cn2cc1C(=O)Nc1cnn2cc(C)cnc12 (single isomer, unassigned) [Example 643]
40 |  | 0.0012 µM | CCC(C)Oc1nc2nc(C34COC(CF)(C3)C4)cn2cc1C(=O)Nc1cnn2cc(C)cnc12 (single isomer, unassigned) [Example 644]
41 |  | 0.0005 µM | CCC(C)Oc1nc2nc(C34COC(CF)(C3)C4)cn2cc1C(=O)Nc1cnn2cc(C)cnc12 (single isomer, unassigned) [Example 645]

Row | IC50 [1] | IC50 | Compound
42 |  | 0.0008 µM | Cc1cnc2c(NC(=O)c3cn4cc([C@]56CO[C@H](CCO5)C6)nc4cc3OC(C)C)cnn2c1 (single isomer, unassigned) [Example 646]
43 |  | 0.0013 µM | Cc1cnc2c(NC(=O)c3cn4cc([C@]56CO[C@H](CCO5)C6)nc4nc3OC(C)C)cnn2c1 (single isomer, unassigned) [Example 647]
44 |  | 0.0045 µM | Cn1ccc(NC(=O)c2cn3cc([C@]45CC[C@](C)(C4)OC5)nc3nc2OC2CCC2)n1 (single isomer, unassigned) [Example 648]
45 |  | 0.0005 µM | CC(C)Oc1nc2nc([C@@]34CC[C@@](C)(C3)OC4)cn2cc1C(=O)Nc1cccn(C)c1=O (single isomer, unassigned) [Example 652]
46 |  | 0.0011 µM | CC(C)Oc1nc2nc([C@]34CC[C@](C)(C3)OC4)cn2cc1C(=O)Nc1cccn(C)c1=O (single isomer, unassigned) [Example 653]
47 |  | 0.0004 µM | C[C@@H](Oc1cc2nc(C34COC(C)(C3)C4)cn2cc1C(=O)Nc1cccc(C(F)F)n1)C1CC1 (single isomer, unassigned) [Example 655]
48 |  | 0.0002 µM | C[C@H](Oc1cc2nc(C34COC(C)(C3)C4)cn2cc1C(=O)Nc1cccc(C(F)F)n1)C1CC1 (single isomer, unassigned) [Example 656]
49 |  | 0.0009 µM | Cc1cnc2c(NC(=O)c3cn4cc(C56COC(C)(C5)C6)nc4cc3O[C@H](C)C3CC3)cnn2c1 (single isomer, unassigned) [Example 657]
50 |  | 0.0006 µM | Cc1cnc2c(NC(=O)c3cn4cc(C56COC(C)(C5)C6)nc4cc3O[C@@H](C)C3CC3)cnn2c1 (single isomer, unassigned) [Example 658]
51 | 0.0475 µM |  | COc1nc(C(=O)Nc2ccccn2)cn2cc(C3CCOCC3)nc12 [Example 78]
52 |  | 0.0126 µM | CCOc1cc2nc([C@H]3C[C@H]3F)cn2cc1C(=O)Nc1cccc(OC)n1 [Example 79]
53 |  | 0.029 µM | CCOc1cc2nc([C@@H]3C[C@@H]3F)cn2cc1C(=O)Nc1cccc(OC)n1 [Example 80]
54 |  | 0.232 µM | COc1cccc(NC(=O)c2cn3cc(C4CCOCC4)nc3cn2)n1 [Example 81]
55 |  | 0.119 µM | O=C(Nc1cccc(C(F)(F)F)n1)c1cn2cc(C3CCOCC3)nc2cn1 [Example 82]
56 |  | 0.264 µM | O=C(Nc1cccc(C(F)F)n1)c1cn2cc(C3CCOCC3)nc2cn1 [Example 83]
57 |  | 7.51 µM | COCCn1ccc(NC(=O)c2cn3cc(C4C5COCC54)nc3cn2)n1 (stereo not drawn) [Example 84]
